The values below come from PMC5702947, “A Study on Cytotoxic and Apoptotic Potential of a Triterpenoid Saponin (3-O-α-L-Arabinosyl Oleanolic Acid) Isolated from Schumacheria castaneifolia Vahl in Human Non-Small-Cell Lung Cancer (NCI-H292) Cells” (BioMed Research International, 2017).

In one assay the test system is Escherichia coli. The arrangement: method as in earlier work. The conditions noted are these: cited from earlier work.
Assay [1] relates to MRC-5 cells. The assay is described as follows: Cytomorphological changes under phase-contrast microscope, MRC-5 cells. Particulars: MRC-5 cells, 1.5, 6.25 and 12.5 μg/mL, 24, 48, 72 h, phase-contrast images. The format is cell-based, human. From the text:
(§1) Morphological changes of lung cancer cells (NCI-H292) and normal fibroblasts (MRC-5) cells after exposure to 3-O-L-AO were captured using inverted phase-contrast microscope (Olympus CKX41, Japan).

In assay [2] the test system is reactive oxygen species (ROS). The assay can be described thus: Reactive oxygen species (ROS) level, NBT assay in NCI-H292 cells. Particulars: NCI-H292 cells, 0.5, 1 and 2 μg/mL (all three doses), 24 h, dose dependant. The format is cell-based, human. On the procedure: (§2) Evaluation of oxidative stress markers (reactive oxygen species (ROS), glutathione-S-transferase (GST), and glutathione (GSH)) after exposure to 3-O-L-AO in NCI-H292 cells was determined as previously described by us.
NCI-H292 cells (20,000 cells/well) were plated in 96-well cell plates and incubated for 24 h. Following incubation, cells were treated with 3-O-L-AO (0.5, 1, and 2 μg/mL) and incubated for 24 h. Nitro Blue Tetrazolium (NBT) solution (1 mg/mL, 20 μL) was then added to each well and incubated for 1 h at 37°C. Blue formazan formed was then solubalized after adding 100 μL of dimethyl sulfoxide (DMSO) and the absorbance was read at 620 nm.

The test system of assay [3] is NCI-H292 cells. The assay is described as follows: Sulforhodamine B (SRB) cytotoxicity assay in NCI-H292 cells. Particulars: Homo sapiens. The format is cell-based. As for the experimental part: (§3) Sulphorhodamine B (SRB) assay was used to dertmine cytotoxic effects of the compound (3-O-L-AO) in NCI-H292 and MRC-5 cells. Cells (5 × 10^3/well) were seeded in 96-well tissue culture plates and incubated for 24 h. After 24 h incubation, cells were treated with 3-O-L-AO (0.78–25 μg/mL) and incubated for 24, 48, and 72 h. Paclitaxel (0.47–15 μg/mL) was used as the positive control. Cells were washed with PBS for three times and then fixed by adding 50% trichloroacetic acid (TCA) to each well followed by washing five times with tap water. After fixing, cells were stained with 0.4% SRB dye for 20 min followed by washing five times with 1% acetic acid. Tris-base (10 mM) was then added to each well and plates were kept on a plate shaker for 1 h at room temperature. The absorbance was measured using a microplate reader (Synergy HT, USA) at wavelength of 540 nm.
Background: In SRB staining, fixed cells bind dye roughly in proportion to their protein.

In assay [4] the test system is MRC-5 cells. The assay can be described thus: Sulforhodamine B (SRB) cytotoxicity assay in MRC-5 cells. The format is cell-based. The conditions noted are these: Homo sapiens. On the procedure: as §3
The test system of another assay is Bax gene. The assay can be described thus: Quantitative real-time PCR, Bax gene expression in NCI-H292 cells. The format is cell-based, human. Particulars: 1 and 2 μg/mL (both doses), 24 h. On the procedure: (§4) NCI-H292 cells (2 × 10^5 cells/mL) grown in T-25 tissue culture flasks were treated with 3-O-L-AO (1 and 2 μg/mL) and incubated for another 24 h. TRIzol reagent was used to extract RNA as described by Ediriweera et al., 2016 [13]. Extracted RNA (2 μg) was incubated with 50 ng of random primers and 13.5 μL of PCR water for 5 min at 70°C. cDNA synthesis was then carried out after mixing with a maxter mix containing 5 μL MMLV (Moloney Murine Leukemia Virus Reverse Transcriptase) reaction buffer, 5 μL 10 mM dNTP mix, 25 units of RNasin, and 200 units of MMLV RT enzyme, following incubation at 37°C for 60 min, in a total volume of 25 μL. Stratagene Mx3000P real-time PCR system (Agilent Technologies, CA, USA) was used to carry out real-time PCR. Primers used have been previously described. For real-time PCR, 2 μL of cDNA was mixed with Master Mix containing 0.5 μL of forward and reverses primers, 12.5 μL SYBR Green Master Mix (Eurogentec, Seraing, Liège, Belgium), and 9.5 μL PCR water. The thermal cycle programme set for real-time PCR include stage 1, 95°C for 10 min and stage two consisting of three steps: denaturation at 95°C for 30 s, annealing at 56°C for 1 min, and extension at 72°C for 30 s and stage 2 was repeated for 40 cycles. […] Gene expression was quantified using the method described by Livak and Schmittgen, 2001 [14].
Background: Quantitative PCR measures a nucleic acid by following its amplification.

Assay [5] deals with glutathione-S-transferase (GST). The assay is described as follows: Glutathione-S-transferase (GST) activity in NCI-H292 cell lysates. The class given is cell-based, human. Particulars: NCI-H292 cells, 0.5, 1 and 2 μg/mL (all three doses), 24 h, p < 0.05 to p < 0.0001. As for the experimental part: as §2
An aliquot of cell lysates prepared for GSH assays was used to analyse GST activity. Glutathione and CDNB (1-chloro-2,4-dinitrobenzene) were served as substrates in this assay. A mixture was prepared by mixing 490 μL of PBS (pH 6.5), 5 μL of CDNB (100 mM), and 5 μL of GSH (100 mM); 180 μL of this mixture was mixed with 20 μL of cell lysate and incubated for 5 min at 37°C. Absorbance was recoreded at 340 nm for 5 min (1-minute time intervals). Quantity of GST catalyzing the oxidation of 1 millimole of 1-chloro-2,4-dinitrobenzene per minute at 37°C was considerd as one unit of GST activity.

A further assay relates to Staphylococcus aureus. Details: method as in earlier work. Particulars: cited from earlier work.
In assay [6] the test system is NCI-H292 cells. The assay is described as follows: Cytomorphological changes under phase-contrast microscope, NCI-H292 cells. The format is cell-based, human. The conditions noted are these: NCI-H292 cells, 1.5, 6.25 and 12.5 μg/mL, 24, 48, 72 h, phase-contrast images.
Text: as §1

Assay [7] relates to NCI-H292 cells. The assay is described as follows: AO/EB staining, apoptosis related morphology under fluorescence microscopy. Particulars: NCI-H292 cells, 2.5, 5 and 10 μg/mL, 24 h. The format is cell-based, human. As for the experimental part: NCI-H292 lung cancer cells (2 × 10^4 cells/well) cultured on coverslips were treated with 3-O-L-AO (2.5, 5, and 10 μg/mL) for 24 h. After incubation, cells were washed with phosphate buffer saline (PBS) and fixed with 4% formaldehyde for 15 min. Fixed cells were again washed with PBS and stained with acridine orange/ethidium bromide as previously described by us. Stained cells were observed under a fluorescence microscope (Olympus, BX51TRF, Japan).

A further assay deals with glutathione (GSH). The assay is described as follows: Glutathione (GSH) levels in NCI-H292 cells. The class given is cell-based, human. The conditions noted are these: NCI-H292 cells, 0.5, 1 and 2 μg/mL (all three doses), 24 h, p < 0.0001. As for the experimental part:
as §2
NCI-H292 cells were (1 × 10^5 cells/well) exposed to 3-O-L-AO (0.5, 1, and 2 μg/mL) for 24 h. After incubation, cells were collected by trypsinization. Collected cell pellets were mixed with ice-cold KCl (2 mL) and 0.5 M EDTA (1 mL) and sonicated for […]. Cell lysate was then centrifuged at 10,000 g for 15 min to obtain a clear supernatant and it was kept on ice throughout the experiments. Supernatent (75 μL) was mixed with 75 μL of 5% sulfosalicylic acid, 20 μL of 4% DTNB [5,5-dithiobis-(2-nitrobenzoic acid)], and 30 μL of 0.1 M potassium phosphate buffer (pH 8.0) and incubated for 30 min. Absorbance was then recorded at 412 nm and glutathione levels were calculated as nM/mg of cell lysate protein with the help of a GSH standard curve.

A further assay relates to p53 gene. The assay can be described thus: Quantitative real-time PCR, p53 gene expression in NCI-H292 cells. Particulars: 24 h. The class given is cell-based, human. On the procedure: as §4
A further assay concerns survivin gene. The assay is described as follows: Quantitative real-time PCR, survivin gene expression in NCI-H292 cells. The class given is cell-based, human. Particulars: 1 and 2 μg/mL (both doses), 24 h, downregulation not significant. On the procedure:
as §4

The test system of the next assay is caspase 3/7. The assay can be described thus: Caspase-Glo 3/7 activity assay in NCI-H292 cells. The format is cell-based, human. Particulars: NCI-H292 cells, 0.5, 1 and 2 μg/mL (all three doses), 24 h. On the procedure:
Caspase 3/7 activity in NCI-H292 cells was measured using the Caspase-Glo 3/7 assay kit according to manufacturer's protocol. Prior to the assay, NCI-H292 cells were treated with three doses of 3-O-L-AO (0.5, 1, and 2 μg/mL) and incubated for 24 h.

`CC1(C)CCC2(C(=O)O)CCC3(C)C(=CCC4C5(C)CCC(OC6OCC(O)C(O)C6O)C(C)(C)C5CCC43C)C2C1` [3-O-L-AO, 3-O-α-L-arabinosyl oleanolic acid]: in the assay with Escherichia coli, the “Antibacterial effects against Escherichia coli” value is recorded as “Moderate antibacterial effects”. In the assay on MRC-5 cells [1], the “Cytomorphological changes of normal lung fibroblast cells” value was “decreased cell volume and rounding up cells”. Besides, the “Reactive oxygen species (ROS) level” value in [2] is recorded as “significantly (p < 0.05 to p < 0.0001) increased”. For the same molecule, the IC50 (commonly the concentration that gives 50% inhibition) in the assay with NCI-H292 cells [3] (24 h incubation) amounted to 4.33 mg/L; in the assay with NCI-H292 cells [3] (48 h incubation), 2.69 mg/L; in the assay with NCI-H292 cells [3] (72 h incubation) it was 1.5 mg/L; with MRC-5 cells [4] (MRC5, 24 h incubation), 5.4 mg/L; in the assay with MRC-5 cells [4] (MRC5, 48 h incubation) it was 4.59 mg/L; in the assay with MRC-5 cells [4] (MRC5, 72 h incubation), 2.83 mg/L. Also, in the assay on Bax gene, the Bax gene expression result is “Significant (p < 0.001 and p < 0.0001) upregulation”. Besides, in assay [5], the “GST levels (activity)” value was “increase”. In the assay with Staphylococcus aureus, the “Antibacterial effects against Staphylococcus aureus” value is listed as “Moderate antibacterial effects”. Moreover, the “Cytomorphological changes of lung cancer cells” value in the assay with NCI-H292 cells [6] is “decreased cell volume and rounding up cells”. The “Apoptotic induction (AO/EB staining)” value in the assay on NCI-H292 cells [7] is “dose dependent apoptotic induction”. The GSH levels entry in the assay with glutathione (GSH) is reported as “Significant reduction”. Further, the p53 gene expression result was “upregulation” in the assay on p53 gene (1 μg/mL) and “significant (p < 0.05) upregulation” in the assay with p53 gene (2 μg/mL). Further, in the assay on survivin gene, the survivin gene expression result is “downregulation”. For the same molecule, the “Caspase 3/7 activity compared to untreated control” value in the assay with caspase 3/7 is on record as “Significant (p < 0.0001) increase”.
Take `CC(=O)O[C@H]1C(=O)[C@@]2(C)[C@H]([C@H](OC(=O)c3ccccc3)[C@]3(O)C[C@H](OC(=O)[C@H](O)[C@@H](NC(=O)c4ccccc4)c4ccccc4)C(C)=C1C3(C)C)[C@]1(OC(C)=O)CO[C@@H]1C[C@@H]2O` [Paclitaxel, reference compound]: the IC50 with NCI-H292 cells [3] (24 h incubation) worked out at 8.37 mg/L; with NCI-H292 cells [3] (48 h incubation), 3.28 mg/L; with NCI-H292 cells [3] (72 h incubation) it was 1.59 mg/L; in the assay on MRC-5 cells [4] (MRC5, 24 h incubation), 1.51 mg/L; with MRC-5 cells [4] (MRC5, 48 h incubation), 0.96 mg/L; in the assay on MRC-5 cells [4] (MRC5, 72 h incubation), 0.35 mg/L.
